Values after ≈ are worked out from the molar mass of the structure shown. Values joined by “and” are separate entries in the source; they are usually repeats but may differ in a detail not shown here. Identical values can stand only once. Counter-ions that a name gives are not always drawn.
Key:
[1] = system: melanotic melanoma B16; assay: Melanotic Melanoma B16 test (survival of transplanted mice); format: in vivo, C57BC/6 mice
Procedure: The animals used are C57BC/6 mice, all of the same sex, weighing a minimum of 17 g. and all within a 3 g. weight range. There are normally 10 animals per test group. A one-gram portion of melanotic melanoma B16 tumor is homogenized in 10 ml. of cold balanced salt solution and a 0.5 ml. aliquot of the homogenate is implanted intraperitoneally into each of the test mice. The test compounds are administered intraperitoneally on days one through 9 (relative to tumor inoculation) at various doses. The animals are weighed and survivors are recorded on a regular basis for 60 days. The median survival time and the ratio of survival time for treated (T)/control (C) animals are calculated. The positive control compound is 5-fluorouracil given as a 20 mg./kg. injection. The results of this test with representative compounds of the present invention appear in Table II below. The criterion for efficacy is T/C×100≥125%.

[2] = system: lymphocytic leukemia P388; assay: Lymphocytic leukemia P388 test (survival of transplanted mice); format: in vivo
Procedure: Lymphocytic leukemia P388 test
The animals used are mice, all of one sex, weighing a minimum of 18 g. and all within a 3 gram weight range. There are 5 or 6 animals per test group. The tumor transplant is by intraperitoneal injection of 0.1 ml. or 0.5 ml. of dilute ascitic fluid containing 10^6 cells of lymphocytic leukemia p388. The test compounds are administered intraperitoneally on days one, 5 and 9 (relative to tumor inoculation) at various doses. The animals are weighed and survivors are recorded on a regular basis for 60 days. The median survival time and the ratio of survival time for treated (T)/control (C) animals are calculated. The positive control compound is 5-fluorouracil given as an intraperitoneal injection on days one, 5 and 9. […] The criterion for efficacy is T/C×100≥125%.

[3] = system: Enterococcus SM 77-15; assay: Antibacterial spectrum, agar-dilution streak-plate technique; format: cell-based; details: SM7715, 37° C., 18 hours, read-out: Minimal Inhibitory Concentration
Procedure: (§1) The antibacterial spectrum, in terms of the concentration required to inhibit the growth of various typical bacteria, was determined in a standard manner by the agar-dilution streak-plate technique. A Steers multiple inocula replicator was used with incubation at 37° C. for 18 hours in Mueller-Ninton agar. The results for typical compounds of this invention are set forth in Table III below as the minimal inhibitory concentration in micrograms per milliliter.

[4] = system: Staphylococcus aureus OSU 75-2; assay: as above; format: cell-based; details: OSU752, 37° C., 18 hours, read-out: Minimal Inhibitory Concentration
Procedure: as §1

[5] = system: Staphylococcus aureus Q 74-11; assay: as above; format: cell-based; details: 37° C.; for MIC: Staphylococcus aureus, Q7411, 18 h, read-out: Minimal Inhibitory Concentration
Procedure: as §1

[6] = system: Staphylococcus aureus St. Paul (NYC 78-1); assay: as above; format: cell-based; details: 37° C., 18 hours, read-out: Minimal Inhibitory Concentration
Procedure: as §1

[7] = 3 mg./kg., i.p. days one through 9
[8] = 3 mg./kg., i.p. days one through 9, efficacy criterion ≥125%
[9] = 6 mg./kg., i.p. days one through 9
[10] = 6 mg./kg., i.p. days one through 9, efficacy criterion ≥125%
[11] = 12 mg./kg., i.p. days one through 9
[12] = 12 mg./kg., i.p. days one through 9, efficacy criterion ≥125%
[13] = 3.12 mg./kg., i.p. days 1, 5 and 9
[14] = 3.12 mg./kg., i.p. days 1, 5 and 9, efficacy criterion ≥125%
[15] = 6.25 mg./kg., i.p. days 1, 5 and 9
[16] = 6.25 mg./kg., i.p. days 1, 5 and 9, efficacy criterion ≥125%
[17] = 12.5 mg./kg., i.p. days 1, 5 and 9
[18] = 12.5 mg./kg., i.p. days 1, 5 and 9, efficacy criterion ≥125%
[19] = 25 mg./kg., i.p. days 1, 5 and 9
[20] = 25 mg./kg., i.p. days 1, 5 and 9, efficacy criterion ≥125%
[21] = 1.5 mg./kg., i.p. days one through 9
[22] = 1.5 mg./kg., i.p. days one through 9, efficacy criterion ≥125%
[23] = 50 mg./kg., i.p. days 1, 5 and 9
[24] = 50 mg./kg., i.p. days 1, 5 and 9, efficacy criterion ≥125%
[25] = 20 mg./kg. injection (positive control)
[26] = 40 mg./kg., i.p. days 1, 5 and 9 (positive control)
[27] = 60 mg./kg., i.p. days 1, 5 and 9 (positive control)

SMILES	Median Survival [1, 7]	T/C × 100 [1, 8]	Median Survival [1, 9]	T/C × 100 [1, 10]	Median Survival [1, 11]	T/C × 100 [1, 12]	Median Survival [2, 13]	T/C × 100 [2, 14]	Median Survival [2, 15]	T/C × 100 [2, 16]	Median Survival [2, 17]	T/C × 100 [2, 18]	Median Survival [2, 19]	T/C × 100 [2, 20]	Median Survival [2, 23]	T/C × 100 [2, 24]	further results
Clc1cccc2c1C(C=NNC1=NCCN1)c1ccccc1C2C=NNC1=NCCN1 (centres unmarked) [1-Chloro-bis(2-imidazolin-2-ylhydrazone)-9,10-dihydro-9,10-anthracenedicarboxaldehyde dihydrochloride]	22.0 days	129%	25.5 days	150%	31.0 days	182%	15.5 days	163%	16.5 days	174%	19.5 days	205%	21.0 days	221%	–	–	–
Cc1ccc2c(c1)C(C=NNC1=NCCN1)c1ccccc1C2C=NNC1=NCCN1 (centres unmarked) [2-Methyl-bis(2-imidazolin-2-ylhydrazone)-9,10-dihydro-9,10-anthracenedicarboxaldehyde dihydrochloride]	25.0 days	147%	28.0 days	165%	33.5 days	197%	13.5 days	142%	14.5 days	153%	16.0 days	168%	16.0 days	168%	19.0 days	200%	Median Survival [1, 21]: 24.0 days; T/C × 100 [1, 22]: 141%
COc1ccc(OC)c2c1C(C=NNC1=NCCN1)c1ccccc1C2C=NNC1=NCCN1 (centres unmarked) [1,4-Dimethoxy-bis-(2-imidazolin-2-ylhydrazone)-9,10-dihydro-9,10-anthracenedicarboxaldehyde]	–	–	–	–	–	–	–	–	–	–	–	–	–	–	–	–	MIC [3]: 256 µg/mL (≈ 556 µM); MIC [4]: 128 µg/mL (≈ 278 µM); MIC [5]: 64 µg/mL (≈ 139 µM); MIC [6]: 128 µg/mL (≈ 278 µM)
Clc1ccc2c(c1)C(C=NNC1=NCCN1)c1ccccc1C2C=NNC1=NCCN1 (centres unmarked) [2-Chloro-bis(2-imidazolin-2-ylhydrazone)-9,10-dihydro-9,10-anthracenedicarboxaldehyde dihydrochloride]	–	–	–	–	–	–	17.5 days	175%	18.5 days	185%	18.0 days	180%	18.0 days	180%	20.0 days	200%	–
COc1ccc(OC)c2c1C(C=NNC1=NCCN1)c1ccccc1C2C=NNC1=NCCN1 (centres unmarked) [Bis-(2-imidazolin-2-ylhydrazone)-1,4-dimethoxy-9,10-dihydro-9,10-anthracenedicarboxaldehyde dihydrochloride]	–	–	–	–	–	–	–	–	–	–	–	–	–	–	–	–	Minimal Inhibitory Concentration ([5]; 18 hours, dihydrochloride): 128 µg/mL
C(=NNC1=NCCN1)C1c2ccccc2C(C=NNC2=NCCN2)c2ccccc21 (centres unmarked) [Bis(2-imidazolin-2-ylhydrazone)-9,10-dihydro-9,10-anthracenedicarboxaldehyde dihydrochloride]	22.0 days	138%	25.0 days	156%	32.0 days	200%	–	–	–	129%	–	152%	–	–	–	–	Median Survival [1, 21]: 21.0 days; T/C × 100 [1, 22]: 131%; Median Survival ([2]; 6.25 mg./kg., i.p. days 1, 5 and 9, dihydrochloride): 13 days; Median Survival ([2]; 12.5 mg./kg., i.p. days 1, 5 and 9, dihydrochloride): 16 days
C(=NNC1=NCCN1)C1c2ccccc2C(C=NNC2=NCCN2)c2ccccc21 (centres unmarked) [Bis(2-imidazolin-2-ylhydrazone)-9,10-dihydro-9,10-anthracenedicarboxaldehyde]	–	–	–	–	–	–	14 days	127%	16.5 days	150%	16.5 days	150%	17.5 days	159%	20 days	182%	MIC [3]: 16 µg/mL (≈ 40 µM); MIC [4]: 128 µg/mL (≈ 320 µM); MIC [5]: 32 µg/mL (≈ 79.9 µM); MIC [6]: 64 µg/mL (≈ 160 µM); Median Survival ([2]; 100 mg./kg., i.p. days 1, 5 and 9): 19.5 days; T/C × 100 ([2]; 100 mg./kg., i.p. days 1, 5 and 9, efficacy criterion ≥125%): 177%; Median Survival ([2]; 200 mg./kg., i.p. days 1, 5 and 9): 23 days; Median Survival ([2]; 400 mg./kg., i.p. days 1, 5 and 9): 25 days; T/C × 100 ([2]; 400 mg./kg., i.p. days 1, 5 and 9, efficacy criterion ≥125%): 227%; T/C × 100 ([2]; mouse, in vivo, ip): 209
O=c1[nH]cc(F)c(=O)[nH]1 [5-Fluorouracil, reference compound]	–	–	–	–	–	–	–	–	–	–	–	–	–	–	–	–	Median Survival [1, 25]: 30 days and 28.5 days; T/C × 100 [1, 25]: 187% and 168%; Median Survival [2, 26]: 19.0 days and 18 days; T/C × 100 [2, 26]: 181% and 164%; Median Survival [2, 27]: 15.0 days and 18.5 days; T/C × 100 [2, 27]: 158% and 185%; T/C × 100 ([2]; mouse, in vivo, ip): 158

Reference: patent publication US4235996A, “Bis(2-imida zolin-2-ylhydrazone)-9,10-dihydro-9,10-anthracenedicarboxaldehydes” (American Cyanamid Company, priority 1978, dated 1980)
